Format in all cases: functional
The subject of one assay is Escherichia coli. Put plainly: Antibacterial activity against Escherichia coli assessed as reduction in bacterial growth after 24 hrs by two-fold serial dilution method.
Assay [1] relates to Staphylococcus epidermidis. Description: Antibacterial activity against Staphylococcus epidermidis assessed as reduction in bacterial growth after 24 hrs by two-fold serial dilution method.
The next assay deals with Candida albicans. Put plainly: Antifungal activity against Candida albicans assessed as reduction in […] by two-fold serial dilution method.
Another assay concerns Helicobacter pylori. Description: Antibacterial activity against Helicobacter pylori 51 assessed as reduction in microbial growth after 24 hrs by two-fold serial dilution method.

Structures are written as SMILES.

As to `O=c1c(-c2cc(Cl)c(O)c(Cl)c2)coc2cc(O)ccc12`, the minimal inhibitory concentration (MIC) (in the assay with Escherichia coli; in assay [1]; with Candida albicans) was > 50 µg/mL throughout.

In the case of `O=c1c(-c2ccc(O)cc2)coc2c(Cl)c(O)c(O)c(Cl)c12`, the MIC (with Escherichia coli; in assay [1]; with Candida albicans) was > 50 µg/mL in each case.

Take `O=c1c(-c2cc(Cl)c(O)c(Cl)c2)coc2c(Cl)c(O)c(Cl)c(O)c12`: the MIC (in the assay on Escherichia coli; in assay [1]; in the assay with Candida albicans) was > 50 µg/mL throughout.

For the compound `O=c1c(-c2ccc(O)cc2)coc2c(Cl)c(O)c(Cl)c(O)c12`, the minimal inhibitory concentration (MIC) (with Escherichia coli; in assay [1]; in the assay with Candida albicans) was > 50 µg/mL in each case.

Turning to `O=c1c(-c2cc(Br)c(O)c(Br)c2)coc2c(Br)c(O)c(Br)c(O)c12`, in the assay on Helicobacter pylori, the minimum inhibitory concentration (MIC) (commonly the lowest concentration found to suppress growth) came to 58.1 µg/mL; the MIC50 (commonly an inhibitory concentration at the 50% level, which refers to growth in some studies and to a panel of isolates in others) was 14.5 µg/mL.

For the compound `COc1cc2occ(-c3cc(Cl)c(O)c(Cl)c3)c(=O)c2cc1OC`, the MIC (with Escherichia coli; in assay [1]; in the assay on Candida albicans) was > 50 µg/mL throughout.

Regarding `O=c1c(-c2cc(Br)c(O)c(Br)c2)coc2c(Br)c(O)ccc12`, in the assay with Helicobacter pylori, the MIC amounted to 35.1 µg/mL and the MIC50 stood at 6.9 µg/mL.

On to `COc1cc2c(=O)c(-c3cc(Cl)c(O)c(Cl)c3)coc2c(Cl)c1O`, for which the MIC (in the assay with Escherichia coli; in assay [1]; in the assay with Candida albicans) was > 50 µg/mL each time.

Turning to `COc1cc2c(=O)c(-c3cc(Cl)c(O)c(Cl)c3)coc2cc1O`, the MIC (in the assay with Escherichia coli; in assay [1]; in the assay with Candida albicans) was > 50 µg/mL each time.

Consider `O=c1c(-c2cc(Cl)c(O)c(Cl)c2)coc2c(Cl)c(O)c(Cl)cc12`, for which the minimum inhibitory concentration (MIC) (with Escherichia coli; in assay [1]; with Candida albicans) was > 50 µg/mL each time.

`Cc1ncc([N+](=O)[O-])n1CCO` [METRONIDAZOLE]: in the assay with Helicobacter pylori, the MIC came to 4.3 µg/mL and the MIC50 amounted to 11.8 µg/mL.

For the origin of these results see ChEMBL document CHEMBL4699506, “Polyhalogenation of Isoflavonoids by the Termite-Associated Actinomadura sp. RB99” (2020).
